Common to all, as to format: cell-based, human
One assay has as its system c-jun. Nature of the assay: Real Time RT-PCR in SW480 cells, c-jun. The conditions noted are these: 25 μM; for ΔCT c-jun: relative to β-actin. Here is the method:
(§1) The RNeasy Midi Kit (Qiagen) was used for RNA extraction and Real Time RT-PCR was performed according to the protocol provided with the SYBR Green PCR Master Mix Kit (Perkin Elmer Biosystems, Shelton, Conn.). The primers used for cyclin D1, axin2, hnkd, c-myc, c-jun, and fra-1 amplifications were: cyclin D1 forward primer:5′-[…]-CCTGCTG-3′ (SEQ ID NO: 32) reverse primer: 5′-[…]-3′ (SEQ ID NO: 33) leading to a product size of approximately 300 bp; axin2 forward primer: 5′-[…] GGAAA-CT-3′ (SEQ ID NO: 34) and reverse primer: 5′-[…]-GAGA-3′ (SEQ ID NO: 35); hnkd forward primer: 5′-[…] TTGCGT-3′ (SEQ ID NO: 36) and the reverse primer: 5′-[…] ACGT-3′ (SEQ ID NO: 37); c-myc forward primer: 5′-GAA-[…] CTGC-3′ (SEQ ID NO: 38) and reverse primer: 5′-[…]-G-3′ (SEQ ID NO: 39); c-jun forward primer: 5′-[…]-3′ (SEQ ID NO: 40) and reverse primer: 5′-[…]-3′ (SEQ ID NO: 41); fra-1 forward primer: 5′-ACC-[…]-[…]-3′ (SEQ ID NO: 42) and reverse primer: 5′-[…]-TT-3′ (SEQ ID NO: 43). β-actin was used for normalization. […]
(§2) 1 μg of mRNA, for each time point, was subjected to Real Time RT-PCR. Expression level of endogenous cyclin D1, c-myc, fibronectin, hnkd, axin2, c-jun, and BMP-4 were measured relative to β-actin. Quantitation of The ΔCycle of Threshold (CT) values was determined by subtracting the average values of each set by the corresponding average values obtained for β-actin. […]
(§3) The cyclin D1 gene is inappropriately expressed in many different tumor types, and is known to be a direct target of the Wnt/β-catenin pathway (Shtutman et al., “The cyclin D1 gene is a target of the beta-catenin/LEF-1 pathway,” Proc. Natl. Acad. Sci. USA 96:5522-27 (1999); Tetsu et al., “Beta-catenin regulates expression of cyclin D1 in colon carcinoma cells,” Nature 398:422-26 (1999)). […] Expression level of endogenous cyclin D1, c-myc, fibronectin, hnkd, axin2, c-jun, and BMP-4 were measured relative to β-actin. Quantitation of The ΔCycle of Threshold (CT) values was determined by subtracting the average values of each set by the corresponding average values obtained for β-actin. […]
(In qPCR the cycle at which signal appears reflects the starting amount.)

In assay [1] the test system is nuclear β-catenin in HCT116 cells. As to the kind of experiment: β-catenin immunofluorescence localization in HCT116 cells. Particulars: 25 μM, 24 hours, to cytoplasmic membrane. How it is done: FIG. 4. COMPOUND 1 decreases nuclear β-catenin • A. β-catenin immunofluorescence microscopy. Log phase SW480 (left) and HCT116 (right) cells were fixed and stained with either anti-β-catenin red (upper panel, A) or anti-CBP (upper panel, B) green. The center panel represents the superimposed β-catenin and CBP in SW480 (left) and HCT116 (right) cells. […] 25 μg of total protein from the cell extracts of SW480 cells with or without 24 hr treatment of COMPOUND1 was used for detection of cytosolic and nuclear β-catenin.
Immunofluorescence was used to examine the localization of CBP and β-catenin in SW480 and HCT116 cells treated with COMPOUND 1 (25 μM) or control (0.5% DMSO). Cells at log phase were seeded and after 24 hours, the cells were treated with COMPOUND 1 or control. 24 hours post treatment, cells were fixed. The coverslips were incubated with antibodies raised against CBP (A-22) (Santa Cruz Biotechnology) and β-catenin (Transduction Laboratories), respectively. The slides were examined using a Nikon PCM 2000 Laser Scanning Confocal Microscope after the secondary antibodies conjugated to either FITC or TRITC (Jackson ImmunoResearch, Westgrove, Pa.) were applied.

A further assay relates to cyclin D1. Nature of the assay: Real Time RT-PCR in SW480 cells, cyclin D1. Particulars: 25 μM; for ΔCT cyclin D1: relative to β-actin. How it is done:
as §1, §2, §3

On to `O=C1C(Cc2ccc(O)cc2)N2C(=O)CCN(C(=O)NCc3ccccc3)C2CN1Cc1cccc2ccccc12` (stereo not shown) [COMPOUND 1], for which the “mRNA c-jun (direction)” value with c-jun is on record as “↑”. The ΔCT c-jun in the assay on c-jun (4 hours) is recorded as 0; in the assay on c-jun (24 hours), −2.9. The “Subcellular distribution of β-catenin” value in assay [1] is listed as “redistribution of β-catenin”. Besides, in the assay with cyclin D1, the “mRNA cyclin D1 (direction)” value is on record as “↓”. Also, the “ΔCT cyclin D1” value with cyclin D1 (4 hours) is given as 0.6; with cyclin D1 (24 hours) it was 3.1.

(Values after patent US7531320B2, “Modulation of β-catenin/TCF-activated transcription” (priority 2003, dated 2009).)
